Test results published in PMC10223284, “Category-Based Toxicokinetic Evaluations of Data-Poor Per- and Polyfluoroalkyl Substances (PFAS) using Gas Chromatography Coupled with Mass Spectrometry” (Toxics, 2023).
“And” between values parts separate entries of the source, which are not always exact repeats. Identical values can stand only once.

Tested on: pooled human cryopreserved primary hepatocyte suspensions
Test: Hepatic metabolic stability (hepatocyte clearance) assay, substrate depletion
Type: in vitro ADME
Settings: for Linear Regression Results, Best-Fit Values, Slope: hepatocyte time course
Outline: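 Substrate depletion of 1 μM compound, 37 °C, with pooled human hepatocytes (50-donor, 50,000 cells/100 μL) in William's E; samples quenched in acetonitrile up to 240 min, triplicate time points. Intrinsic clearance (μL/min/million hepatocytes) and half-life derived from semi-log slope, background-adjusted using media-only and inactivated-cell controls; compounds with ≥50% abiotic loss at T120 excluded.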

[1] = hepatocyte incubation, Rep 1-3, start conc 1000 nM

SMILES | Concentration (nM), Time 0 min [1] | Concentration (nM), Time 15 min [1] | Concentration (nM), Time 30 min [1] | Concentration (nM), Time 60 min [1] | Concentration (nM), Time 120 min [1] | Concentration (nM), Time 240 min [1] | Linear Regression Results, Best-Fit Values, Slope | In Vitro Clint (pooled human hepatocyte suspensions, 1 μM)
OCCC(F)(F)C(F)(F)C(F)(F)C(F)(F)F [4:2 Fluorotelomer alcohol] | 12113.7 nM and 7313.14 nM | 1692.86 nM and 1166.53 nM and 1804.74 nM | 339.856 nM and 404.508 nM and 458.803 nM | 47.9903 nM and 38.9317 nM and 58.7749 nM | 18.0283 nM and 18.9716 nM and 31.4203 nM | 21.5215 nM and 17.4089 nM and 13.0166 nM | -0.02281 | 
OCC(F)(F)C(F)(F)C(F)(F)C(F)(F)C(F)(F)C(F)(F)C(F)(F)C(F)(F)CO [1H,1H,10H,10H-Perfluorodecane-1,10-diol] | 503.86 nM and 483.613 nM and 411.089 nM | 181.506 nM and 316.777 nM and 270.544 nM | 207.766 nM and 203.542 nM and 107.454 nM |  |  |  | -0.0283 | 49.86 μL/min/10^6 cells
NC(=O)C(F)(F)C(F)(F)C(F)(F)F [Heptafluorobutyramide] | 988.297 nM and 784.776 nM and 618.66 nM | 550.618 nM and 957.096 nM and 714.95 nM | 499.471 nM and 561.118 nM and 588.537 nM | 417.033 nM and 313.668 nM and 348.927 nM | 201.833 nM and 266.362 nM and 226.765 nM |  | -0.009975 | 
